Two molecules from paper PMC11927960, “Multiparameter ranking of carbazoles for anti-trypanosome lead discovery” (Frontiers in drug discovery, 2024) can be followed below.

Molecules are shown by their SMILES. Like-named read-outs stand apart in the source and are kept apart here.

A short description of data set [1]: Brain accumulation (brain to plasma concentration ratio). As to conditions: Swiss Webster, mouse. As to the method:
The plasma concentration and tissue distribution of drugs were determined by Absorption Systems. […] Blood and brain samples were obtained at 1, 2, 4, and 6 h post-dosing, and plasma and brain concentrations of the drug were determined using LC-MS/MS. Stock standards for calibration were prepared in a matrix comprising equal volumes of water and mouse blood containing K2-EDTA as an anticoagulant. Working solutions were prepared in 50:50 acetonitrile–water and added to the matrix to final concentrations of 1,000, 500, 100, 50.0, 10.0, 5.00, 1.00, and 0.500 ng/mL for all compounds. Pharmacokinetic parameters were determined using Phoenix WinNonlin (v8.0) software with sparse sampling. Maximum plasma concentration (Cmax) and the time to reach maximum plasma concentration (tmax) were determined from the four data points. The area under the time concentration curve (AUClast) was calculated using the linear trapezoidal rule with calculation to a 6-h data point. Plasma half-life (t1/2) was calculated from 0.693/slope of the terminal elimination phase. Samples below the limit of detection (0.500 ng/mL) were treated as 0. […]
or CBL0187, respectively. Blood and brain samples were obtained at 1, 2, 4, and 6 h post-dosing, and plasma and brain concentrations of the carbazoles were determined using LC-MS/MS. (A) Brain tissue concentrations of curaxins at different time points (B) Ratios of […]
male and female Swiss-wester mice. […]

The subject of the next data set is T. brucei Lister427. In words: Trypanosome proliferation inhibition assay (SYBR Green, 48 h). The following applies: Trypanosoma brucei; continuous exposure 48 h, 4 × 10^3 trypanosomes/mL. It is filed as cell-based. The protocol: Trypanosome proliferation inhibition assays
T. b. Lister 427 or T. b. AnTat1.1 were seeded at 4 × 10^3 cells/mL or 2 × 10^3 cells/mL (in 50 μL culture medium), respectively, into 384-well black plate (Greiner; Frickenhausen, Germany) and treated with serial dilutions of each compound in duplicate. Plates were incubated for 48 h at 37 °C and 5% CO2. […] Fluorescence in lysates was quantitated with a fluorometer (Fluoroskan Ascent Microplate Fluorometer, Thermo Scientific) (100 ms; ex: 485 nm, em: 538 nm). Each experiment was performed in triplicate.

Data set [2] concerns Trypanosoma brucei Lister427. As to the kind of experiment: Recovery of trypanosome proliferation after 6-h exposure to Cmax or AUC0–6h amounts in 50% serum. It counts as cell-based. The following applies: for Trypanocidal or cytostatic outcome: 6-h treatment with Cmax equivalents. The protocol:
Recovery of trypanosome proliferation after a 6-h exposure to curaxins
The in vivo plasma exposure of trypanosomes to drug is expressed as area under the curve (AUC) in pharmacokinetic analysis. Theoretically, the same drug exposures in vitro and in vivo will be achieved within 6 h if the in vitro compound concentration × 6 h value was equal to in vivo AUC0–6h. […] AUC0–6h unbound is equal to the AUC0–6h × fraction of drug unbound to plasma (PFU) (Table 4).
Trypanosomes (1 × 10^5/mL) were treated with a concentration equivalent of the AUC0–6h unbound (Table 4) of each compound. After 6 h, cells were washed and resuspended (1 × 10^5 cells/mL) in drug-free medium. […] Proliferation recovery time was recorded post drug wash-off as described above.

For data set [3], the system named is endocytosis of transferrin (Tf) in Trypanosoma brucei. As to the kind of experiment: Endocytosis of transferrin (flow cytometry). It counts as cell-based. As to conditions: for Effect on endocytosis of Tf / Endocytosis Transferrin: DTC25; for Increase of Tf endocytosis compared to DMSO: DTC25, 6 h, not statistically significant; for Endocytosis Transferrin: Table S3. As to the method: (§1) Cells were washed and resuspended in serum-free medium. Trypanosomes were incubated with fluorescent endocytosis ligands transferrin (Tf) or bovine serum albumin (BSA) for 30 min (37 °C). A flow cytometer was used to detect fluorescence intensity per cell. Propidium iodide (PI) was used to stain and gate out non-viable cells. Histograms present fluorescence intensity of Tf-AF488 (A) or BSA-AF647 (B) for every cell (n > 10,000 for each cargo) in DMSO or drug-treated samples. Points on the scatter plot represent mean fluorescence intensities of Tf (C) or BSA (D) from three biological replicates (calculated with FlowJo). Bars indicate mean ± SD. Student’s t-test was used to evaluate statistical significance of differences in mean intensity of endocytosed ligand in DMSO-treated sample compared to curaxin-treated samples.
Curaxin or DMSO-treated trypanosomes (5 × 10^5/mL) were washed with serum-free HMI-9 medium (500 uL). Trypanosomes were resuspended in serum-free HMI-9 medium (100 μL) supplemented with either transferrin–[…] conjugate (50 μg, Invitrogen, Eugene, OR) or BSA–AlexaFluor647 conjugate (50 μg, Invitrogen, Eugene, OR) for 30 min at 37 °C, 5% CO2. Cells were transferred to an ice-water bath, washed with cold PBS/G at 4 °C (3,000 g for 5 min), resuspended in PBS/G (500 μL) containing propidium iodide (3 μM), and analyzed on a flow cytometer (Beckman Coulter CytoFLEX S). FlowJo software (FlowJo, LLC) was used to gate trypanosomes based on size and shape (forward and side scatter features), and fluorescence intensity of endocytosed protein was measured in viable cells (negative for propidium iodide uptake). FlowJo software was used to determine the mean fluorescence intensity of each cargo in trypanosomes (at least 10,000 events). Data from three independent biological experiments were analyzed with a two-tailed Student’s t-test with unequal variance to determine the possible statistical significance of differences in means of fluorescence intensities of endocytosed cargo.
Background: A flow cytometer gives signals particle by particle.

The test system of the next data set is T. brucei AnTat1.1. As to the kind of experiment: Treatment of chronic HAT in a mouse model of disease. It is filed as in vivo, Trypanosoma brucei in Swiss-Webster mice. The following applies: for Mean parasitemia on day 7 post-infection: CBL0174 60 mg/kg, CBL0187 50 mg/kg orally from day 3, vehicle 1.64 × 10^7; for Outcome in chronic HAT mouse model: oral, CBL0137 40 mg/kg days 2-5, 8-11, 14, 15, CBL0174 60 mg/kg and CBL0187 50 mg/kg days 3-9. As to the method:
Mice were each infected intraperitoneally with Trypanosoma brucei AnTat1.1 (10^4). […] (B) CBL0174 and CBL0187: Groups V, B, and D were given vehicle, CBL0174 (60 mg/kg) and CBL0187 (50 mg/kg), respectively, from day 3 through 9. Different shapes represent individual mice, and horizontal lines in each group denote mean parasitemia determined with a hemocytometer. UND = undetectable; DPI = days post-infection.
Treatment of chronic HAT in a mouse model of disease
Drug efficacy studies in a mouse model of HAT were conducted following recommendations in the “Guide for the Care and Use of Laboratory Animals” of the National Institutes of Health. The protocol was approved by the Institutional Animal Care and Use Committee (IACUC) at the University of Georgia. After the study, the mice were euthanized by CO2 asphyxiation followed by incision to form a bilateral pneumothorax, as approved by the American Veterinary Association.
Female Swiss-Webster mice (20–25 g; 8–10 weeks old) were acclimatized for 1 week before the commencement of the study. […] Parasites in blood collected from a tail venipuncture and diluted 8-fold in RBC lysis buffer (Qiagen) were monitored with a hemocytometer (Neubauer Bright-line). During the study, mice with parasitemia above 10^8 trypanosomes/mL were euthanized for humane reasons. Mice without parasitemia for 90 days were considered cured.

The subject of data set [4] is endocytosis of bovine serum albumin (BSA) in Trypanosoma brucei. It counts as cell-based. As to conditions: DTC25; Table S3. The protocol:
as §1, with “Student’s t-test was used to evaluate statistical significance of differences in mean intensity of endocytosed ligand in DMSO-treated sample compared to curaxin-treated samples.” left out
Curaxin or DMSO-treated trypanosomes (5 × 10^5/mL) were washed with serum-free HMI-9 medium (500 uL). […] Cells were transferred to an ice-water bath, washed with cold PBS/G at 4 °C (3,000 g for 5 min), resuspended in PBS/G (500 μL) containing propidium iodide (3 μM), and analyzed on a flow cytometer (Beckman Coulter CytoFLEX S). FlowJo software (FlowJo, LLC) was used to gate trypanosomes based on size and shape (forward and side scatter features), and fluorescence intensity of endocytosed protein was measured in viable cells (negative for propidium iodide uptake). FlowJo software was used to determine the mean fluorescence intensity of each cargo in trypanosomes (at least 10,000 events). […]

The mark [5] stands for this setting: 6-h treatment with Cmax amount (CBL0137 1.85, CBL0174 1.04, CBL0187 0.72 μM), 50% serum, NR = no recovery 84 h after wash-off.

Consider `CC(=O)c1cc2c3cc(C(C)=O)c(O)cc3n(CCCN(C)C)c2cc1O` [CBL0174, 1-[6-acetyl-9-[3-(dimethylamino)propyl]-2,7-dihydroxy-carbazol-3-yl]ethanone], for which the Kp in data set [1] (brain, oral) was found to be 26.9. Also, the Kp in data set [1] (in vivo, po) amounted to 27.9. Besides, the EC50 with T. brucei Lister427 worked out at 0.021 µM. The molecule further displayed a Latency of proliferation in data set [2] of 66 h. This molecule returned a Latency of proliferation in data set [2] (setting [5]) of 66 h. In addition, in data set [2] (50% serum), the “Trypanocidal or cytostatic outcome” value is “cytostatic”. In addition, in data set [3], the “Fold increase of Tf endocytosis compared to DMSO” value came out at 1.39, the “Effect on endocytosis of Tf” value is on record as “did not promote endocytosis of Tf”, the “Increase of Tf endocytosis compared to DMSO” value was 39% and the “Endocytosis Transferrin” value is “Activated”. For the same molecule, in the data set on T. brucei AnTat1.1, the “Mean parasitemia on day 7 post-infection” value was 8.22 × 10^7 ± 6.64 × 10^6 trypanosomes/mL and the “Outcome in chronic HAT mouse model” value was “failed to control parasitemia”. Besides, the “Endocytosis BSA affected” value in data set [4] is “No”.
As for `CC(=O)c1cc2c3cc(C(C)=O)c(O)cc3n(CCNC(C)C)c2cc1O` [CBL0187, 1-[6-acetyl-2,7-dihydroxy-9-[2-(isopropylamino)ethyl]carbazol-3-yl]ethanone], the Kp in data set [1] (brain, oral) was found to be 15.9. This molecule registered an EC50 with T. brucei Lister427 of 0.0089 µM. This molecule also returned a Latency of proliferation in data set [2] of 30 h. Moreover, the Latency of proliferation in data set [2] (setting [5]) came out at 6 h. For the same molecule, the “Time to resumption of proliferation (before subtracting 18 h of control)” value in data set [2] (6-h treatment with Cmax equivalent, 50% serum) was 24 h. For the same molecule, the “Trypanocidal or cytostatic outcome” value in data set [2] (50% serum) was “not trypanocidal”. Besides, in data set [3], the “Fold increase of Tf endocytosis compared to DMSO” value is 1.31, the “Effect on endocytosis of Tf” value is given as “had no effect on the pathway”, the “Increase of Tf endocytosis compared to DMSO” value came out at 30.9% and the “Endocytosis Transferrin” value is “Activated”. In the data set with T. brucei AnTat1.1, the “Mean parasitemia on day 7 post-infection” value is listed as 8.99 × 10^7 ± 2.43 × 10^7 trypanosomes/mL and the “Outcome in chronic HAT mouse model” value is given as “failed to control parasitemia”. In data set [4], the “Endocytosis BSA affected” value was “No”.

What is called EC50 is the concentration at which the effect is half-maximal. Read a low EC50 as a more potent agent.
